Laboratory results taken from patent US20190100534A1, “Cephem Compounds with Latent Reactive Groups” (Gladius Pharmaceuticals, Inc., priority 2017, published 2019).

Columns and labels:
[1] = test system: both Acinetobacter baumannii strains tested; assay: MIC determination, summary in text; type: cell-based; conditions: review of Table 2
Protocol: (§1) Sterile technique was used throughout these experiments. Suspensions of organisms were removed from storage (−80° C.) and partially thawed. Partially thawed organisms (1 μL) were inoculated into 3 mL sterile LB Broth in a sterile culture tube and capped, then cultured at 37° C. with shaking for 4-5 hours until the optical density at 600 nm (OD600) was greater than 0.1 on a single beam spectrophotometer.
(§2) The concentration of organisms was adjusted to 0.08-0.1 OD600 (0.5 McFarland units) by dilution with sterile cation-adjusted Meuller-Hinton (CAMH) broth. The suspensions were used within 30 minutes of preparation.
(§3) A stock solution was made of each test compound by measuring 6.4 mg of the compound on an analytical balance and dissolving it in DMSO (1 mL) to get a transparent solution. The solutions were stored at −20° C. and thawed prior to use.
(§4) Sterile CAMH broth (200 μL) containing 20 μM Apo-Transferrin was pipetted into the first row of 8 columns of a sterile, round-bottomed, transparent, 96-well microplate using an 8-channel pipette equipped with sterile tips. One hundred μL was pipetted into the wells of the remaining 11 rows.
With an 8-channel pipette equipped with sterile tips, 100 μL of the first row solution was transferred to the second row and mixed. […]
(§5) For each organism the MIC was determined by identifying the transparent well with the lowest test compound concentration.

[2] = test system: various Pseudomonas strains; assay: MIC determination, summary in text; type: cell-based, Pseudomonas aeruginosa; conditions: review of Tables 1-1 and 1-2
Protocol: as §1, §2, §3, §4
(§6) With an 8-channel pipette equipped with sterile tips, 100 μL of the first row solution was transferred to the second row and mixed. The process was repeated for the second to third rows and continued through row 11. One hundred μL from row 11 was removed and discarded so that all 12 rows contained 100 μL. Row 12 contained no compound and rows 1-11 contained 64, 32, 16, 8, 4, 2, 1, 0.5, 0.25, 0.125, […] of a given compound.
(§7) Inoculant suspensions (0.5 μL) were added to the 12 wells of each column. The plates were then covered and incubated at 37° C. overnight for 18 hours.
as §5

EC(KB1 CTX-M-14) = assay: MIC determination; type: cell-based, Escherichia coli
Procedure, shortened: (§8)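 Overnight (18 h, 37 °C) microdilution assay. Pre-grown LB cultures were brought to 0.08-0.1 OD600 in cation-adjusted Mueller-Hinton broth; wells contained 20 μM apo-transferrin and compound between 64 and 0.125 μg/mL. Lowest clear-well concentration recorded as MIC.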

EC(KB2 CTX-M-14) = assay: MIC determination; type: cell-based, Escherichia coli
Procedure, shortened: as §8

[3] = test system: A. baumannii (JMI OXA-58); assay: MIC determination; type: cell-based, Acinetobacter baumannii; conditions: class D carbapenemase producer, CAMH broth, 20 μM Apo-Transferrin, 37° C., 18 hours
Procedure, shortened: as §8

EC (Escherichia coli) = assay: MIC determination; type: cell-based; conditions: 20 μM Apo-Transferrin, 37° C., 18 hours
Procedure, shortened: as §8

[4] = test system: KP (Klebsiella pneumoniae); assay: MIC determination; type: cell-based; conditions: 20 μM Apo-Transferrin, 37° C., 18 hours
Procedure, shortened: as §8

PM (Proteus mirabilis) = assay: MIC determination; type: cell-based; conditions: CAMH broth, 20 μM Apo-Transferrin, 37° C., 18 hours
Procedure, shortened: as §8

SM (Serratia marcescens) = assay: MIC determination; type: cell-based; conditions: CAMH broth, 20 μM Apo-Transferrin, 37° C., 18 hours
Procedure, shortened: as §8

[5] = test system: CF (Citrobacter freundii); assay: MIC determination; type: cell-based; conditions: CAMH broth, 20 μM Apo-Transferrin, 37° C., 18 hours
Procedure, shortened: as §8

[6] = test system: ENC (Enterobacter cloacae); assay: MIC determination; type: cell-based; conditions: CAMH broth, 20 μM Apo-Transferrin, 37° C., 18 hours
Procedure, shortened: as §8

[7] = test system: KOXY (Klebsiella oxytoca); assay: MIC determination; type: cell-based; conditions: CAMH broth, 20 μM Apo-Transferrin, 37° C., 18 hours
Procedure, shortened: as §8

ENA (URMC-2) = assay: MIC determination; type: cell-based, Enterobacter aerogenes; conditions: CAMH broth, 20 μM Apo-Transferrin, 37° C., 18 hours
Protocol: as §1, §2, §3, §4, §6, §7, §5

ENA (URMC-1) = assay: MIC determination; type: cell-based, Enterobacter aerogenes; conditions: CAMH broth, 20 μM Apo-Transferrin, 37° C., 18 hours
Protocol: as §1, §2, §3, §4, §6, §7, §5

PM (RR -1) = assay: MIC determination; type: cell-based, Proteus mirabilis; conditions: CAMH broth, 20 μM Apo-Transferrin, 37° C., 18 hours
Protocol: as §1, §2, §3, §4, §6, §7, §5

KP(ATCC SHV-18) = assay: MIC determination; type: cell-based, Klebsiella pneumoniae; conditions: CAMH broth, 20 μM Apo-Transferrin, 37° C., 18 hours
Procedure, shortened: as §8

EA (URMC -3) = assay: MIC determination; type: cell-based; conditions: CAMH broth, 20 μM Apo-Transferrin, 37° C., 18 hours
Protocol: as §1, §2, §3, §4
(§9) To each well of the first row was pipetted 2.0 μL of the 6.4 mg/mL stock test compound stock solution to give 1:100 dilutions and a final concentration of 64 μg/mL and mixed.
as §6, §7, §5

various enteric bacteria = assay: MIC determination, summary in text; type: cell-based; conditions: review of Tables 3-1 to 3-6
Protocol: as §1, §2, §3, §4, §9, §6, §7, §5

[8] = first KP column of Table 3-1, CAMH broth
[9] = second KP column of Table 3-1, CAMH broth

`CC(C)(O/N=C(\C(=O)N[C@@H]1C(=O)N2C(C(=O)O)=C(C=Cc3ccc(C[N+]4(C)CCc5cc(O)c(O)cc5C4)cc3)CS[C@H]12)c1csc(N)n1)C(=O)O` (mixture of isomers) [Compound 407, 2-(4-((E/Z)-2-((6R,7R)-7-((Z)-2-(2-aminothiazol-4-yl)-2-(((2-carboxypropan-2-yl)oxy)imino)acetamido)-2-carboxy-8-oxo-5-thia-1-azabicyclo[4.2.0]oct-2-en-3 yl)vinyl)benzyl)-6,7-dihydroxy-2-methyl-1,2,3,4-tetrahydroisoquinolin-2-ium] was tested, and the “MICs for both Acinetobacter baumannii strains tested, in words” value [1] was “lower microgram/mL MICs”, the “MICs for various Pseudomonas strains, in words” value [2] was “low microgram/mL MICs” and the MIC (EC(KB1 CTX-M-14); Escherichia coli, 18 h, read-out: Minimum Inhibitory Concentrations, EC(KB1 CTX-M-14)) was 2 µg/mL. For the same molecule, the MIC (EC(KB2 CTX-M-14); Escherichia coli, 18 h, read-out: Minimum Inhibitory Concentrations, EC(KB2 CTX-M-14)) was 64 µg/mL, the MIC ([3]; Acinetobacter baumannii, read-out: Minimum Inhibitory Concentrations, A. baumannii (JMI OXA-58)) was 16 µg/mL and the MIC (EC (Escherichia coli); Escherichia coli, first EC column of Table 3-1, CAMH broth, read-out: Minimum Inhibitory Concentrations, EC) was 0.25 µg/mL. For the same molecule, the “Minimum Inhibitory Concentrations, EC” value (EC (Escherichia coli); Table 3-1, CAMH broth) was 0.25 microgram/mL, the “Minimum Inhibitory Concentrations, KP” value [4, 8] was 0.25 microgram/mL and the “Minimum Inhibitory Concentrations, KP” value [4, 9] was 0.25 microgram/mL. The MIC (PM (Proteus mirabilis); Proteus mirabilis, read-out: Minimum Inhibitory Concentrations, PM) was ≤ 0.06 µg/mL, the MIC (SM (Serratia marcescens); Serratia marcescens, read-out: Minimum Inhibitory Concentrations, SM) was 0.25 µg/mL and the MIC ([5]; Citrobacter freundii, read-out: Minimum Inhibitory Concentrations, CF) was ≤ 0.06 µg/mL. The “Mimimum Inhibitory Concentrations, ENC” value [6] was 4 microgram/mL, the MIC ([7]; Klebsiella oxytoca, read-out: Minimum Inhibitory Concentrations, KOXY) was 1 µg/mL and the MIC (ENA (URMC-2); Klebsiella aerogenes, read-out: Minimum Inhibitory Concentrations, ENA (URMC-2)) was 0.5 µg/mL. For the same molecule, the MIC (ENA (URMC-1); Klebsiella aerogenes, read-out: Minimum Inhibitory Concentrations, ENA (URMC-1)) was 0.5 µg/mL, the “Mimimum Inhibitory Concentrations, PM (RR -1)” value (PM (RR -1)) was ≤0.06 microgram/mL and the “Minimum Inhibitory Concentrations, KP(ATCC SHV-18)” value (KP(ATCC SHV-18)) was 2 microgram/mL. For the same molecule, the “Mimimum Inhibitory Concentrations, EA (URMC -3)” value (EA (URMC -3)) was 2 microgram/mL.

For `CC(C)(O/N=C(\C(=O)N[C@@H]1C(=O)N2C(C(=O)O)=C(C=Cc3ccc(C[n+]4ccc5cc(O)c(O)cc5c4)cc3)CS[C@H]12)c1csc(N)n1)C(=O)O` (mixture of isomers) [Compound 435, 2-(4-((E/Z)-2-((6R,7R)-7-((Z)-2-(2-aminothiazol-4-yl)-2-(((2-carboxypropan-2-yl)oxy)imino)acetamido)-2-carboxy-8-oxo-5-thia-1-azabicyclo[4.2.0]oct-2-en-3-yl)vinyl)benzyl)-6,7-dihydroxyisoquinolin-2-ium], the “MICs for various Pseudomonas strains, in words” value [2] was “low microgram/mL MICs”, the “Minimum Inhibitory Concentrations, EC(KB1 CTX-M-14)” value (EC(KB1 CTX-M-14); EC(KB1 CTX-M-14), CAMH broth, 20 μM Apo-Transferrin, 37° C., 18 hours) was ≤0.06 microgram/mL and the “Minimum Inhibitory Concentrations, EC(KB2 CTX-M-14)” value (EC(KB2 CTX-M-14); EC(KB2 CTX-M-14), CAMH broth, 20 μM Apo-Transferrin, 37° C., 18 hours) was ≤0.06 microgram/mL. For the same molecule, the “Minimum Inhibitory Concentrations, A. baumannii (JMI OXA-58)” value [3] was >64 microgram/mL, the “Minimum Inhibitory Concentrations, EC” value (EC (Escherichia coli); Table 3-1, CAMH broth) was ≤0.06 microgram/mL and the “Minimum Inhibitory Concentrations, EC” value (EC (Escherichia coli); first EC column of Table 3-1, CAMH broth) was ≤0.06 microgram/mL. The “Minimum Inhibitory Concentrations, KP” value [4, 8] was ≤0.06 microgram/mL, the “Minimum Inhibitory Concentrations, KP” value [4, 9] was ≤0.06 microgram/mL and the “Minimum Inhibitory Concentrations, PM” value (PM (Proteus mirabilis)) was ≤0.06 microgram/mL. For the same molecule, the “Minimum Inhibitory Concentrations, SM” value (SM (Serratia marcescens)) was 0.25 microgram/mL, the “Minimum Inhibitory Concentrations, CF” value [5] was ≤0.06 microgram/mL and the “Mimimum Inhibitory Concentrations, ENC” value [6] was 16 microgram/mL. The “Minimum Inhibitory Concentrations, KOXY” value [7] was ≤0.06 microgram/mL, the “Minimum Inhibitory Concentrations, ENA (URMC-2)” value (ENA (URMC-2)) was 0.13 microgram/mL and the “Minimum Inhibitory Concentrations, ENA (URMC-1)” value (ENA (URMC-1)) was 0.13 microgram/mL. The “Mimimum Inhibitory Concentrations, PM (RR -1)” value (PM (RR -1)) was ≤0.06 microgram/mL, the “Minimum Inhibitory Concentrations, KP(ATCC SHV-18)” value (KP(ATCC SHV-18)) was 0.25 microgram/mL and the “MICs for various enteric bacteria, in words” value (various enteric bacteria) was “low microgram/mL MICs”. The “Mimimum Inhibitory Concentrations, EA (URMC -3)” value (EA (URMC -3)) was 0.5 microgram/mL.
